# “And” between values parts separate entries of the source, which are not always exact repeats. Identical values can stand only once.
# Experiments:
# NSCLC = conditions: in combination with chemotherapy; cited from earlier work
# C. elegans N2 wild type = tested on: C. elegans N2 wild type
# Experimental: (§1) To examine the effect of human c-met gene expression in C. elegans, both wild-type c-Met cDNA and mutant c-Met cDNA were individually micro-injected into young adult wild type N2 hermaphrodite gonads (gonad syncitium), at a concentration of 25 μg/ml. The constructs for the mutant c-Met cDNA were generated as described above. Control animals (N2) were injected with vector alone. Injected animals were individually cloned and their progeny were observed under dissecting microscope. Progenies were isolated and examined for visible morphological abnormalities such as defects in vulval formation, body morphology and locomotion. Individually cloned transgenic animals were further analyzed for fecundity and viability.
# (§2) Animals in the progeny harboring a visible phenotype such as vulva defect, body morphology change, locomotion defect, and paralysis; and animals showing hyperactivity were isolated, individually cloned and examined with dissecting microscope. For detailed analysis of the phenotype, individual animals were mounted on an agar pad and observed under a Nikon Eclipse E600 fluorescence microscope equipped for Nomarski optics. Images were taken by a Hamamatsu Photonics CCD camera, and processed using the Metamorph digital imaging software (Siddiqui et al., Am J Physiol Lung Cell Mol Physiol 286, L1016-26 (2004)).
# (§3) To determine whether a c-Met germline mutation alone is sufficient for lung cancer development or whether in order to develop lung cancer development a synergism of c-Met with smoking is necessary, the C. elegans transgenic animals described above were exposed to nicotine. Nicotine response experiments were performed in M9 buffer as previously described by Waggoner, et al. (Waggoner et al., J Neurosci 20, 8802-11 (2000)). Animals were cultured at 20° C. on nematode growth media (NGM) plates seeded with E. coli strain OP50. To examine the nicotine dose response, individual young adult hermaphrodites were placed in 6-well microtiter plate in M9 buffer at different concentrations of nicotine. Following one hour incubation with nicotine medium plates at 20° C., total numbers of eggs laid by each individual animal were counted.
# [1] = tested on: T1010I c-Met transgenic C. elegans
# Experimental: as §1, §2, §3
# [2] = tested on: wild type human c-Met transgenic C. elegans; conditions: Wt c-Met
# Experimental: as §1, §2, §3
# [3] = tested on: R988C c-Met transgenic C. elegans
# Experimental: as §1, §2, §3
# [4] = tested on: reactive oxygen species (ROS) in MU melanoma cells; assay: Reactive oxygen species measurement by DHE immunofluorescence; assay type: cell-based, human; conditions: HGF 40 ng/ml for 7.5 min; DHE
# Experimental: 5×10^4 MU melanoma cells were plated in 35 mm petri dishes. After 24 hrs MU Melanoma cells were kept in serum free media containing 0.5% BSA with and without 5 μM SU11274 for 12 hrs. Cells were treated with 40 ng/ml HGF for 7.5 min, then treated with DHE 10 μM (molecular probes Inc, Eugene, Oreg.) for 30 min, after which they were visualized under a fluorescent Olympus microscope IX81, 20× objective, ND3 and Rhodamine filter sets. Fluorescence was then quantified using Image J and graphed.
# The endogenous levels of reactive oxygen species (ROS) was also analyzed in MU melanoma cells with and without HGF treatment using DHE by fluorescence microscopy. DHE is a redox sensitive probe that has widely been used to detect intracellular superoxide anion. The relative levels of ROS were increased in response to HGF by 47%, and SU11274 decreased the ROS response to HGF to 3%.
# [5] = chronic exposure with nicotine (20 μm)
# [6] = nicotine (20 μM) for 24 hours or more
compound,measurement,setting,value
bevacizumab: targeted therapy against VEGF,enhancement of median overall survival,NSCLC,2.3 months
CN1CCCC1c1cccnc1 (stereo not shown) [nicotine],Body Shape Changes,C. elegans N2 wild type; [5],3% and 3 ± 0.21 %
same,Growth Arrest,C. elegans N2 wild type; [5],1.23% and 1.23 ± 0.19 %
same,Locomotion Defects,C. elegans N2 wild type; [5],1% and 1 ± 0.18 %
same,Paralysis,C. elegans N2 wild type; [5],2% and 2 ± 0.02 %
same,viability,C. elegans N2 wild type; in the presence of nicotine,91.94%
same,vulval defects,C. elegans N2 wild type; [6],2%
same,Body Shape Changes,[1]; [5],21% and 21 ± 0.14 %
same,Growth Arrest,[1]; [5],29% and 29.0 ± 0.11 %
same,viability,[1]; in the presence of nicotine,4.58%
same,vulval defects,[1]; [6],28%
same,Body Shape Changes,[2]; [5],12% and 12 ± 0.22 %
same,Growth Arrest,[2]; [5],9.72% and 9.72 ± 0.16 %
same,Locomotion Defects,[2]; [5],11% and 11 ± 0.09 %
same,Paralysis,[2]; [5],8% and 8 ± 0.08 %
same,viability,[2]; in the presence of nicotine,65.06%
same,vulval defects,[2]; [6],6%
same,Body Shape Changes,[3]; [5],18% and 18 ± 0.13 %
same,Growth Arrest,[3]; [5],22.9% and 22.9 ± 0.41 %
same,viability,[3]; in the presence of nicotine,30.54%
same,vulval defects,[3]; [6],15%
"HGF: hepatocyte growth factor, the ligand for c-Met",increase of relative levels of ROS,[4],47%
